Reference: patent publication US11638713B2, “Patentiflorin A analogs as antiviral agents” (priority 2019, dated 2023)

Experiments:
[1] = tested on: HIV; test: microbe, parasite or virus in culture; type: cell-based; settings: for EC50: Human immunodeficiency virus 1, A549
[2] = in vitro; settings: human
[3] = tested on: H5N1 virus; test: microbe, parasite or virus in culture; type: cell-based, H5N1 influenza virus; settings: Influenza A virus, read-out: % Inhibition against H5N1 virus; for inhibition at 0.05 µg/mL: H5N1, A549, 50 ng/mL; for inhibition at 0.25 µg/mL: H5N1, A549, 250 ng/mL; for inhibition at 1 µg/mL: H5N1, A549, 1000 ng/mL; for inhibition at 5 µg/mL: H5N1, A549, 5000 ng/mL

Row | SMILES | EC50 [1] [nM] | CC50 ([2]; CC50 (nM)) [nM] | other results
1 | CCCC(=O)O[C@H]1[C@H](O)[C@@H](C)OC(Oc2c3c(c(-c4ccc5c(c4)OCO5)c4cc(OC)c(OC)cc24)C(=O)OC3)[C@@H]1O (stereo partly drawn) [Compound 31c, 3″-O-butyryl-7-O-β-D-patentiflorin A] | 0.03 | 13.4 | anti-HIV activity in terms of SI values [1]: much more improved anti-HIV activity
2 | COc1cc2c(-c3ccc4c(c3)OCO4)c3c(c(N4CCOCC4)c2cc1OC)COC3=O [Compound 19m] | 88.6 | 1500 | –
3 | COc1cc2c(Nc3ccc(C(F)(F)F)cc3)c3c(c(-c4ccc5c(c4)OCO5)c2cc1OC)C(=O)OC3 [Compound 19e] | 212 | > 9550 | –
4 | COc1cc2c(OCC(N)=O)c3c(c(-c4ccc5c(c4)OCO5)c2cc1OC)C(=O)OC3 [Compound 14a] | 103 | 548 | –
5 | COc1cc2c(OC3O[C@H](C)[C@@H](O)[C@H](OC(=O)c4ccc(Cl)cc4)[C@H]3O)c3c(c(-c4ccc5c(c4)OCO5)c2cc1OC)C(=O)OC3 (stereo partly drawn) [Compound 31h, 3″-O-p-chlorobenzoyl-7-O-β-D-patentiflorin A] | – | 336 | inhibition at 0.05 µg/mL [3]: 94.6%; inhibition at 0.25 µg/mL [3]: 97.6%
6 | CC(=O)O[C@H]1C(=O)[C@@]2(C)[C@H]([C@H](OC(=O)c3ccccc3)[C@]3(O)C[C@H](OC(=O)[C@H](O)[C@@H](NC(=O)c4ccccc4)c4ccccc4)C(C)=C1C3(C)C)[C@]1(OC(C)=O)CO[C@@H]1C[C@@H]2O [taxol, reference compound] | – | – | CC50 ([2]; CC50 against the host cell line A549): 2.99 nM
7 | CCc1c2c(c(-c3ccc4c(c3)OCO4)c3cc(OC)c(OC)cc13)C(=O)OC2 [Compound 19g] | 19.3 | 196 | –
8 | COc1cc2c(Nc3ccccc3)c3c(c(-c4ccc5c(c4)OCO5)c2cc1OC)C(=O)OC3 [Compound 19f] | 976 | 4510 | –
9 | COc1cc2c(OC)c3c(c(-c4ccc5c(c4)OCO5)c2cc1OC)C(=O)OC3 [Compound 17b] | 2.6 | 2140 | anti-HIV activity in terms of SI values [1]: much more improved anti-HIV activity
10 | COc1cc2c(C(C)=O)c3c(c(-c4ccc5c(c4)OCO5)c2cc1OC)C(=O)OC3 [Compound 19n] | 39.5 | 1060 | –
11 | COc1cc2c(-c3ccco3)c3c(c(-c4ccc5c(c4)OCO5)c2cc1OC)C(=O)OC3 [Compound 19k] | 60.1 | 1060 | –
12 | COc1cc2c(OC3OC[C@@H](O)[C@H](O)[C@H]3OC(C)=O)c3c(c(-c4ccc5c(c4)OCO5)c2cc1OC)C(=O)OC3 (some centres unmarked) [Compound 27ac] | – | 2940 | –
13 | COc1cc2c(OC3O[C@H](C)[C@@H](O)[C@H](OC(=O)c4ccccc4)[C@H]3O)c3c(c(-c4ccc5c(c4)OCO5)c2cc1OC)C(=O)OC3 (stereo partly drawn) [Compound 31d, 3″-O-benzoyl-7-O-β-D-patentiflorin A] | 1.36 | > 63 | –
14 | COc1cc2c(OC3OC[C@@H](OC(C)=O)[C@H](O)[C@H]3OC(C)=O)c3c(c(-c4ccc5c(c4)OCO5)c2cc1OC)C(=O)OC3 (stereo partly drawn) [Compound 27ae, 2″,4″-Diacetyl-7-O-β-D-xylosyldiphyllin] | – | 2590 | –
15 | COc1cc2cc3c(c(-c4ccc5c(c4)OCO5)c2cc1OC)C(=O)OC3 [Compound 19d] | 22.9 | 5430 | anti-HIV activity in terms of SI values [1]: much more improved anti-HIV activity
16 | COc1cc2c(-c3cccnc3)c3c(c(-c4ccc5c(c4)OCO5)c2cc1OC)C(=O)OC3 [Compound 19i] | 877 | 38400 | –
17 | COc1cc2c(Oc3ncccn3)c3c(c(-c4ccc5c(c4)OCO5)c2cc1OC)C(=O)OC3 [Compound 17d] | 1590 | 61100 | –
18 | COc1cc2c(OC3O[C@H](C)[C@@H](O)[C@H](OC(C)=O)[C@H]3O)c3c(c(-c4ccc5c(c4)OCO5)c2cc1OC)C(=O)OC3 (stereo partly drawn) [Compound 27bb, 3″-Acetyl-7-O-β-D-patentiflorin A] | 1.01 | 589 | anti-HIV activity in terms of SI values [1]: much more improved anti-HIV activity
19 | COc1cc2c(OC3O[C@H](C)[C@@H](O)[C@H](OC(=O)C(Cl)(Cl)Cl)[C@H]3O)c3c(c(-c4ccc5c(c4)OCO5)c2cc1OC)C(=O)OC3 (stereo partly drawn) [Compound 31k, 3″-O-trichloroacetyl-7-O-β-D-patentiflorin A] | – | 508 | inhibition at 0.05 µg/mL [3]: 86%; inhibition at 0.25 µg/mL [3]: 95.7%
20 | COc1cc2c(OC3O[C@H](C)[C@@H](OC(C)=O)[C@H](OC(C)=O)[C@H]3OC(C)=O)c3c(c(-c4ccc5c(c4)OCO5)c2cc1OC)C(=O)OC3 (some centres unmarked) [Compound 25b, Peracetylated Patentiflorin A] | – | 259 | –
21 | COc1cc2c(-c3ccc4c(c3)OCO4)c3c(c(C(C)O)c2cc1OC)COC3=O (centres unmarked) [Compound 20] | 21.7 | 389 | –
22 | COc1cc2c(C#C[Si](C)(C)C)c3c(c(-c4ccc5c(c4)OCO5)c2cc1OC)C(=O)OC3 [Compound 19o] | 35.7 | 1220 | –

Row | SMILES | EC50 [1] [nM] | CC50 ([2]; CC50 (nM)) [nM] | other results
23 | COc1cc2c(OC3O[C@H](C)[C@@H](O)[C@H](OC(=O)c4cnccn4)[C@H]3O)c3c(c(-c4ccc5c(c4)OCO5)c2cc1OC)C(=O)OC3 (stereo partly drawn) [Compound 31i, 3″-O-pyrazinecarbonyl-7-O-β-D-patentiflorin A] | – | – | anti-HIV activity in terms of SI values [1]: much more improved anti-HIV activity
24 | COc1cc2c(OC3OC[C@@H](O)[C@H](O)[C@H]3O)c3c(c(-c4ccc5c(c4)OCO5)c2cc1OC)C(=O)OC3 (stereo partly drawn) [Compound 26a, 7β-D-xylosyloxydiphyllin] | – | 6220 | inhibition at 1 µg/mL [3]: 93.6%; inhibition at 5 µg/mL [3]: 97.8%
25 | COc1cc2c(OC3OC[C@@H](O)[C@H](OC(C)=O)[C@H]3O)c3c(c(-c4ccc5c(c4)OCO5)c2cc1OC)C(=O)OC3 (stereo partly drawn) [Compound 27ab, 3″-Acetyl-7-O-β-D-xylosyldiphyllin] | – | 2760 | inhibition at 1 µg/mL [3]: 96.9%; inhibition at 5 µg/mL [3]: 97.8%
26 | COc1cc2c(OCC(=O)O)c3c(c(-c4ccc5c(c4)OCO5)c2cc1OC)C(=O)OC3 [Compound 13] | 23100 | > 114000 | –
27 | COc1cc2c(OC3O[C@@H](C)[C@@H](O)[C@@H](O)[C@@H]3O)c3c(c(-c4ccc5c(c4)OCO5)c2cc1OC)C(=O)OC3 (stereo partly drawn) [Compound 26d, 7-O-β-L-fucopyranosyldiphyllin] | 42.3 | > 9500 | anti-HIV activity in terms of SI values [1]: much more improved anti-HIV activity
28 | COc1cc2c(OC3O[C@H](C)[C@@H](O)[C@H](OC(=O)c4cc([N+](=O)[O-])cc([N+](=O)[O-])c4)[C@H]3O)c3c(c(-c4ccc5c(c4)OCO5)c2cc1OC)C(=O)OC3 (stereo partly drawn) [Compound 31b, 3″-O-(3,5-dinitrobenzoyl)-7-O-β-D-patentiflorin A] | 13.4 | 684 | –
29 | COc1cc2c(NC(C)=O)c3c(c(-c4ccc5c(c4)OCO5)c2cc1OC)C(=O)OC3 [Compound 24] | 88.9 | > 11900 | –
30 | COc1cc2c(OC3OC[C@@H](O)[C@H](OC(C)=O)[C@H]3OC(C)=O)c3c(c(-c4ccc5c(c4)OCO5)c2cc1OC)C(=O)OC3 (stereo partly drawn) [Compound 27af, 2″,3″-Diacetyl-7-O-β-D-xylosyldiphyllin] | – | 2250 | –
31 | COc1cc2c(OCCO)c3c(c(-c4ccc5c(c4)OCO5)c2cc1OC)C(=O)OC3 [Compound 15a] | 33.6 | 918 | –
32 | COc1cc2c(OC3O[C@H](C)[C@@H](OC(C)=O)[C@H](OC(C)=O)[C@H]3O)c3c(c(-c4ccc5c(c4)OCO5)c2cc1OC)C(=O)OC3 (stereo partly drawn) [Compound 27bd, 3″, 4″-Diacetyl-7-O-β-D-patentiflorin A] | 6.39 | 421 | –
33 | COc1cc2c(OC(C)=O)c3c(c(-c4ccc5c(c4)OCO5)c2cc1OC)C(=O)OC3 [Compound 16] | – | 3400 | –
34 | COc1cc2c(OCC(C)(C)O)c3c(c(-c4ccc5c(c4)OCO5)c2cc1OC)C(=O)OC3 [Compound 15b] | 15.5 | 1330 | –
35 | COc1cc2c(OC3O[C@H](C)[C@@H](OC(C)=O)[C@H](O)[C@H]3O)c3c(c(-c4ccc5c(c4)OCO5)c2cc1OC)C(=O)OC3 (stereo partly drawn) [Compound 27ba, 4″-Acetyl-7-O-β-D-patentiflorin A] | 8.47 | 1160 | –
36 | C=CCOC(=O)O[C@H]1[C@H](O)[C@@H](OC(=O)OCC=C)C(Oc2c3c(c(-c4ccc5c(c4)OCO5)c4cc(OC)c(OC)cc24)C(=O)OC3)O[C@@H]1C (stereo partly drawn) [Compound 29b, 2″,4″-O-diallyl oxycarbonyl-7-O-β-D-patentiflorin A] | 4.7 | 187 | –
37 | COc1cc2c(OCC(=O)OC(C)(C)C)c3c(c(-c4ccc5c(c4)OCO5)c2cc1OC)C(=O)OC3 [Compound 12a] | 518 | > 10100 | –
38 | C#CCOc1c2c(c(-c3ccc4c(c3)OCO4)c3cc(OC)c(OC)cc13)C(=O)OC2 [Compound 17c] | 4.8 | 890 | anti-HIV activity in terms of SI values [1]: much more improved anti-HIV activity
39 | COc1cc2c(OC3O[C@H](C)[C@@H](O)[C@H](OC(=O)N(C)C)[C@H]3O)c3c(c(-c4ccc5c(c4)OCO5)c2cc1OC)C(=O)OC3 (stereo partly drawn) [Compound 31f, 3″-O-dimethylcarbamyl-7-O-β-D-patentiflorin A] | – | 3.74 | –
40 | COc1cc2c(N)c3c(c(-c4ccc5c(c4)OCO5)c2cc1OC)C(=O)OC3 [Compound 22] | 1.61 | 358 | anti-HIV activity in terms of SI values [1]: much more improved anti-HIV activity
41 | COc1cc2c(OC3OC[C@@H](OC(C)=O)[C@H](OC(C)=O)[C@H]3O)c3c(c(-c4ccc5c(c4)OCO5)c2cc1OC)C(=O)OC3 (stereo partly drawn) [Compound 27ad, 3″, 4″-Diacetyl-7-O-β-D-xylosyldiphyllin] | – | 783 | –
42 | COc1cc2c(C)c3c(c(-c4ccc5c(c4)OCO5)c2cc1OC)C(=O)OC3 [Compound 19b] | 6.1 | 77.3 | –
43 | COc1cc2c(OC3OC[C@H](O)[C@H](O)[C@H]3O)c3c(c(-c4ccc5c(c4)OCO5)c2cc1OC)C(=O)OC3 (stereo partly drawn) [Compound 26c, 7-O-α-L-arabinosyldiphyllin] | – | > 9760 | –
44 | COc1cc2c(-c3cccs3)c3c(c(-c4ccc5c(c4)OCO5)c2cc1OC)C(=O)OC3 [Compound 19h] | 270 | 2390 | –
